Reference: patent US10590123B2, “Pesticidally active amide heterocyclic derivatives with sulphur containing substituents” (SYNGENTA PARTICIPATIONS AG, priority 2014, dated 2020)

Legend:
Type in all cases: in vivo
[1] = test system: Diabrotica Balteata (Corn Root Worm); experiment: Example B4: Activity against Diabrotica balteata, sprayed maize sprouts; conditions: 96 h, application rate 200 ppm, L2 larvae, 4 days after infestation, read-out: effect in at least one of the two categories (mortality or growth inhibition)
Protocol: Example B4: Activity Against Diabrotica Balteata (Corn Root Worm)
Maize sprouts, placed on an agar layer in 24-well microtiter plates were treated with aqueous test solutions prepared from 10′000 ppm DMSO stock solutions by spraying. After drying, the plates were infested with L2 larvae (6 to 10 per well). The samples were assessed for mortality and growth inhibition in comparison to untreated samples 4 days after infestation.

[2] = test system: Spodoptera littoralis (Egyptian Cotton Leaf Worm); experiment: Example B1: Activity against Spodoptera littoralis, sprayed cotton leaf discs; conditions: foliar, 72 h, application rate 200 ppm, L1 larvae, 3 days after infestation, read-out: control in at least one of the three categories (mortality, anti-feedancy or growth inhibition)
Protocol: Example B1: Activity Against Spodoptera littoralis (Egyptian Cotton Leaf Worm)
Cotton leaf discs were placed on agar in 24-well microtiter plates and sprayed with aqueous test solutions prepared from 10′000 ppm DMSO stock solutions. After drying the leaf discs were infested with five L1 larvae. The samples were assessed for mortality, anti-feedant effect, and growth inhibition in comparison to untreated samples 3 days after infestation. Control of Spodoptera littoralis by a test sample is when at least one of mortality, anti-feedant effect, and growth inhibition is higher than the untreated sample.

[3] = test system: Myzus persicae (Green Peach Aphid); experiment: Example B8: Activity against Myzus persicae, sprayed sunflower leaf discs; conditions: foliar, 144 h, application rate 200 ppm, aphid population of mixed ages, 6 days after infestation
Protocol: Example B8: Activity Against Myzus persicae (Green Peach Aphid)
Sunflower leaf discs were placed on agar in a 24-well microtiter plate and sprayed with aqueous test solutions prepared from 10′000 ppm DMSO stock solutions. After drying, the leaf discs were infested with an aphid population of mixed ages. The samples were assessed for mortality 6 days after infestation.

[4] = test system: Euschistus heros (Neotropical Brown Stink Bug); experiment: Example B7: Activity against Euschistus heros, sprayed soybean leaf; conditions: 120 h, application rate 200 ppm, N-2 nymphs, 5 days after infestation
Protocol: Example B7: Activity Against Euschistus heros (Neotropical Brown Stink Bug)
Soybean leaf on agar in 24-well microtiter plates were sprayed with aqueous test solutions prepared from 10′000 ppm DMSO stock solutions. After drying the leaf were infested with N-2 nymphs. The samples were assessed for mortality 5 days after infestation.

[5] = test system: Plutella xylostella (Diamond Back Moth); experiment: Example B3: Activity against Plutella xylostella, artificial diet; conditions: 120 h, application rate 200 ppm, L2 larvae, 5 days after infestation, read-out: effect in at least one of the two categories (mortality or growth inhibition)
Protocol: Example B3: Activity Against Plutella xylostella (Diamond Back Moth)
24-well microtiter plates with artificial diet were treated with aqueous test solutions prepared from 10′000 ppm DMSO stock solutions by pipetting. After drying, the plates were infested with L2 larvae (10 to 15 per well). The samples were assessed for mortality and growth inhibition in comparison to untreated samples 5 days after infestation.

[6] = test system: Bemisia tabaci (Cotton White Fly); experiment: Example B6: Activity against Bemisia tabaci, sprayed cotton leaf discs; conditions: foliar, 144 h, application rate 200 ppm, adult white flies, 6 days after incubation
Protocol: Example B6: Activity Against Bemisia tabaci (Cotton White Fly)
Cotton leaf discs were placed on agar in 24-well microtiter plates and sprayed with aqueous test solutions prepared from 10′000 ppm DMSO stock solutions. After drying the leaf discs were infested with adult white flies. The samples were checked for mortality 6 days after incubation.

[7] = test system: Spodoptera littoralis (Egyptian Cotton Leaf Worm); experiment: Example B2: Activity against Spodoptera littoralis, systemic via lettuce roots in agar; conditions: 144 h, application rate 12.5 ppm, 6 days after infestation, read-out: control in at least one of the three categories (mortality, anti-feedancy or growth inhibition)
Description: Example B2: Activity Against Spodoptera littoralis (Egyptian Cotton Leaf Worm)
Test compounds were applied by pipette from 10′000 ppm DMSO stock solutions into 24-well plates and mixed with agar. Lettuce seeds were placed on the agar and the multi well plate was closed by another plate which contains also agar. After 7 days the roots have absorbed the compound and the lettuce has grown into the lid plate. The lettuce leafs were now cut off into the lid plate. Spodoptera eggs were pipetted through a plastic stencil on a humid gel blotting paper and the plate closed with it.
The samples were assessed for mortality, anti-feedant effect and growth inhibition in comparison to untreated samples 6 days after infestation.

CCS(=O)(=O)c1cc(-c2ccnc(C(F)(F)F)n2)cnc1C(=O)N(C)c1nnc(C(F)(F)F)s1 [Compound P60]
≥ 80%: percent effect (mortality or growth inhibition) at 200 ppm [1] | percent control (mortality, anti-feedant effect or growth inhibition) at 200 ppm [2] | mortality at 200 ppm [3] | mortality at 200 ppm [4] | percent effect (mortality or growth inhibition) at 200 ppm [5]

CCS(=O)(=O)c1cc(-c2cccc(SC)c2)cnc1C(=O)N(C)c1nnc(C(F)(F)F)s1 [Compound P30]
≥ 80%: percent effect (mortality or growth inhibition) at 200 ppm [1] | mortality at 200 ppm [6] | percent control (mortality, anti-feedant effect or growth inhibition) at 200 ppm [2] | mortality at 200 ppm [3] | mortality at 200 ppm [4] | percent effect (mortality or growth inhibition) at 200 ppm [5]

CCS(=O)(=O)c1cc(-c2ncc(Cl)cc2Cl)cnc1C(=O)N(C)c1nnc(C(F)(F)F)s1 [Compound P47]
≥ 80%: percent control (mortality, anti-feedant effect or growth inhibition) at 12.5 ppm [7] | percent effect (mortality or growth inhibition) at 200 ppm [1] | mortality at 200 ppm [6] | percent control (mortality, anti-feedant effect or growth inhibition) at 200 ppm [2] | mortality at 200 ppm [3] | mortality at 200 ppm [4] | percent effect (mortality or growth inhibition) at 200 ppm [5]

CCS(=O)(=O)c1cc(-c2cccc(F)c2)cnc1C(=O)N(C)c1nnc(C(F)(F)F)s1 [Compound P26]
≥ 80%: percent control (mortality, anti-feedant effect or growth inhibition) at 12.5 ppm [7] | percent effect (mortality or growth inhibition) at 200 ppm [1] | percent control (mortality, anti-feedant effect or growth inhibition) at 200 ppm [2] | mortality at 200 ppm [3] | mortality at 200 ppm [4] | percent effect (mortality or growth inhibition) at 200 ppm [5]

CCSc1cc(-n2ccc(C(F)(F)F)n2)cnc1C(=O)Nc1nnc(C(F)(F)C(F)(F)F)s1 [Compound P6]
≥ 80%: percent control (mortality, anti-feedant effect or growth inhibition) at 12.5 ppm [7]

CCS(=O)(=O)c1cc(-c2ncc(C(F)(F)F)cc2F)cnc1C(=O)N(C)c1nnc(C(F)(F)F)s1 [Compound P48]
≥ 80%: percent control (mortality, anti-feedant effect or growth inhibition) at 12.5 ppm [7] | percent effect (mortality or growth inhibition) at 200 ppm [1] | percent control (mortality, anti-feedant effect or growth inhibition) at 200 ppm [2] | mortality at 200 ppm [4] | percent effect (mortality or growth inhibition) at 200 ppm [5]

CCS(=O)(=O)c1cc(-c2cccc(OC(F)(F)F)c2)cnc1C(=O)N(C)c1nnc(C(F)(F)F)s1 [Compound P31]
≥ 80%: percent control (mortality, anti-feedant effect or growth inhibition) at 12.5 ppm [7] | percent effect (mortality or growth inhibition) at 200 ppm [1] | percent control (mortality, anti-feedant effect or growth inhibition) at 200 ppm [2] | mortality at 200 ppm [4] | percent effect (mortality or growth inhibition) at 200 ppm [5]

CCS(=O)(=O)c1cc(-c2cncs2)cnc1C(=O)N(C)c1nnc(C(F)(F)F)s1 [Compound P40]
≥ 80%: percent effect (mortality or growth inhibition) at 200 ppm [1] | percent control (mortality, anti-feedant effect or growth inhibition) at 200 ppm [2] | mortality at 200 ppm [3] | mortality at 200 ppm [4] | percent effect (mortality or growth inhibition) at 200 ppm [5]

CCS(=O)(=O)c1cc(-c2ccc(C#N)cn2)cnc1C(=O)N(C)c1nnc(C(F)(F)F)s1 [Compound P64, 5-(5-cyano-2-pyridyl)-3-ethylsulfonyl-N-methyl-N-[5-(trifluoromethyl)-1,3,4-thiadiazol-2-yl]pyridine-2-carboxamide]
≥ 80%: percent effect (mortality or growth inhibition) at 200 ppm [1] | percent control (mortality, anti-feedant effect or growth inhibition) at 200 ppm [2] | mortality at 200 ppm [3] | mortality at 200 ppm [4] | percent effect (mortality or growth inhibition) at 200 ppm [5]

CCS(=O)(=O)c1cc(-c2ccc(C(F)(F)F)cc2)cnc1C(=O)N(C)c1nnc(C(F)(F)F)s1 [Compound P4]
≥ 80%: percent effect (mortality or growth inhibition) at 200 ppm [1] | mortality at 200 ppm [6] | percent control (mortality, anti-feedant effect or growth inhibition) at 200 ppm [2] | mortality at 200 ppm [4] | percent effect (mortality or growth inhibition) at 200 ppm [5]

CCS(=O)(=O)c1cc(-c2ccccn2)cnc1C(=O)N(C)c1nnc(C(F)(F)F)s1 [Compound P54]
≥ 80%: percent control (mortality, anti-feedant effect or growth inhibition) at 12.5 ppm [7] | percent effect (mortality or growth inhibition) at 200 ppm [1] | percent control (mortality, anti-feedant effect or growth inhibition) at 200 ppm [2] | mortality at 200 ppm [3] | mortality at 200 ppm [4] | percent effect (mortality or growth inhibition) at 200 ppm [5]

CCS(=O)(=O)c1cc(-c2ncc(Cl)cn2)cnc1C(=O)N(C)c1nnc(C(F)(F)F)s1 [Compound P62]
≥ 80%: percent effect (mortality or growth inhibition) at 200 ppm [1] | percent control (mortality, anti-feedant effect or growth inhibition) at 200 ppm [2] | mortality at 200 ppm [3] | mortality at 200 ppm [4] | percent effect (mortality or growth inhibition) at 200 ppm [5]

CCS(=O)(=O)c1cc(-c2ccnc(Cl)c2)cnc1C(=O)N(C)c1nnc(C(F)(F)F)s1 [Compound P57]
≥ 80%: percent effect (mortality or growth inhibition) at 200 ppm [1] | percent control (mortality, anti-feedant effect or growth inhibition) at 200 ppm [2] | mortality at 200 ppm [3] | mortality at 200 ppm [4] | percent effect (mortality or growth inhibition) at 200 ppm [5]

CCS(=O)(=O)c1cc(-c2ncccn2)cnc1C(=O)N(C)c1nnc(C(F)(F)F)s1 [Compound P43]
≥ 80%: percent control (mortality, anti-feedant effect or growth inhibition) at 12.5 ppm [7] | percent effect (mortality or growth inhibition) at 200 ppm [1] | percent control (mortality, anti-feedant effect or growth inhibition) at 200 ppm [2] | mortality at 200 ppm [3] | mortality at 200 ppm [4] | percent effect (mortality or growth inhibition) at 200 ppm [5]

CCS(=O)(=O)c1cc(-c2cccc3c2OC(F)(F)O3)cnc1C(=O)N(C)c1nnc(C(F)(F)F)s1 [Compound P29]
≥ 80%: percent control (mortality, anti-feedant effect or growth inhibition) at 12.5 ppm [7] | percent effect (mortality or growth inhibition) at 200 ppm [1] | percent control (mortality, anti-feedant effect or growth inhibition) at 200 ppm [2] | mortality at 200 ppm [3] | mortality at 200 ppm [4] | percent effect (mortality or growth inhibition) at 200 ppm [5]

CCS(=O)(=O)c1cc(-c2cc(Cl)ccn2)cnc1C(=O)N(C)c1nnc(C(F)(F)F)s1 [Compound P42]
≥ 80%: percent control (mortality, anti-feedant effect or growth inhibition) at 12.5 ppm [7] | percent effect (mortality or growth inhibition) at 200 ppm [1] | percent control (mortality, anti-feedant effect or growth inhibition) at 200 ppm [2] | mortality at 200 ppm [3] | mortality at 200 ppm [4] | percent effect (mortality or growth inhibition) at 200 ppm [5]

CCS(=O)(=O)c1cc(-c2cccc(C(F)(F)F)c2)cnc1C(=O)N(C)c1nnc(C(F)(F)F)s1 [Compound P37]
≥ 80%: percent effect (mortality or growth inhibition) at 200 ppm [1] | mortality at 200 ppm [6] | percent control (mortality, anti-feedant effect or growth inhibition) at 200 ppm [2] | mortality at 200 ppm [4] | percent effect (mortality or growth inhibition) at 200 ppm [5]
